# Assay results from patent EP2769738B1, “Conjugated TLR7 and/or TLR8 and TLR2 polycationic agonists” (Invivogen, priority 2013, dated 2014).
# Molecular target: T1, murine TLR7 (Mus musculus, UniProt P58681)
# T1 construct: host or cells: HEK293 (ATCC, CRL-1573), HEK-Blue mTLR7
# T1 sequence (P58681 27-1050): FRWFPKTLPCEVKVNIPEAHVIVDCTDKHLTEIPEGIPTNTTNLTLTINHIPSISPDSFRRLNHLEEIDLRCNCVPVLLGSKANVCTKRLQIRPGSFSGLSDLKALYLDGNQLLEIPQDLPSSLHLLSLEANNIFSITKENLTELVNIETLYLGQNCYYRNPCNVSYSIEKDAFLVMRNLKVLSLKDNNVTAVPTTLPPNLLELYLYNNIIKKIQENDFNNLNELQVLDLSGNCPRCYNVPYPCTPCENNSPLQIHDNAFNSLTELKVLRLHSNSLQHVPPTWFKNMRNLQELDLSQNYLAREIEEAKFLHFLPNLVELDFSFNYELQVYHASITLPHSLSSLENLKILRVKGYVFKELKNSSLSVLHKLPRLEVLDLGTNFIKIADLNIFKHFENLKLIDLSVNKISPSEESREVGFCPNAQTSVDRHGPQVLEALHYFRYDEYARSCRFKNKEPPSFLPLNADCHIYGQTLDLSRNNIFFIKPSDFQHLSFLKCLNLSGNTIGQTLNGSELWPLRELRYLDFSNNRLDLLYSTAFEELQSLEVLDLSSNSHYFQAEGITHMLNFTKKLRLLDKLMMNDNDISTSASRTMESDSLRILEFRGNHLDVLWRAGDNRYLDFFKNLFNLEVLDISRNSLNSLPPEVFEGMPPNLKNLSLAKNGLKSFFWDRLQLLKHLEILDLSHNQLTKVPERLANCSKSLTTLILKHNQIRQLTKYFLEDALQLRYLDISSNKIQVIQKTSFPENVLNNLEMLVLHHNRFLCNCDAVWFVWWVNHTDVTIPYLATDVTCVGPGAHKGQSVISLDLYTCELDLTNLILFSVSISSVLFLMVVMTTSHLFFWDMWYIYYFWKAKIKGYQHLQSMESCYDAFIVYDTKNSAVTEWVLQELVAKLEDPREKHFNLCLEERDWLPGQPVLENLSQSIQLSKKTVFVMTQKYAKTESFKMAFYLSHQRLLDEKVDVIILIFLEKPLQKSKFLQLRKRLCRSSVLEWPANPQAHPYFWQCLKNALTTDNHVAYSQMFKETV
# Test: HEK-Blue mTLR7 NF-κB/AP-1-inducible SEAP reporter cell assay
# Assay type: cell-based
# Settings: Figure 2; 10 µg/mL to 10 pg/ml, 24 hours, SEAP read as OD at 655 nm
# Source text: Assays for detecting TLR7, TLR8 or TLR2 activity are known in the art and include for example cell-based assays using respectively TLR7, TLR8 or TLR2 reporter cell lines (InvivoGen). The reporter cell lines are engineered HEK293 cells, a human embryonic kidney cell line (ATCC, CRL-1573) that stably express either murine TLR7 (HEK-Blue™ mTLR7) or human TLR7 (HEK-Blue™ hTLR7), human TLR8 (HEK-Blue™ hTLR8) or human TLR2 (HEK- Blue™ hTLR2) with an NF-κB-inducible secreted embryonic alkaline phosphatase (SEAP) as the reporter gene.
# Cell-based assays were carried out using TLR7 and TLR2 reporter cell lines (InvivoGen). The reporter cell lines are engineered HEK293 cells, a human embryonic kidney cell line (ATCC, CRL-1573) that stably express either murine TLR7 (HEK-Blue™ mTLR7) or human TLR7 (HEK-Blue™ hTLR7) or human TLR2 (HEK- Blue™ hTLR2) with an NF-κB-inducible secreted embryonic alkaline phosphatase (SEAP) as the reporter gene. The SEAP reporter gene is under the control of the NF-κB and AP-1-inducible promoter, which, upon treatment with a corresponding TLR ligand and activation of NF-κB and AP-1, induces the production of SEAP. Detection of SEAP is measured following culturing cells in HEK-Blue™ Detection media (InvivoGen). HEK-Blue™ Detection contains a SEAP substrate that when hydrolysed by SEAP produces a colorimetric change allowing for detection of SEAP as the protein is secreted. […] These assays were carried out using RAW-Blue™ Cells (InvivoGen), derived from RAW 264.7 mouse leukemic monocyte macrophage cell line (ATCC, CRL 2278) stably overexpressing a NF-κB /AP-1 inducible SEAP reporter constructs.
# To perform the assay, cells were seeded on 96 well microliter plates at 50,000 or 100,000 cells per well for HEK-Blue™ Cells and RAW-Blue™ Cells respectively, and cultured at 37 °C in the presence of the conjugated compounds The TLR7-TLR2 polyamine molecules were prepared as follows: First, stock solutions of the conjugated compounds of the invention were prepared in ethanol or water to a concentration of 10 mg/ml.
# The working dilutions of the conjugated TLR7-TLR2 polyamine agonists made up in water or PBS were directly added to the reporter cell lines at a final concentration ranging from 10 µg/mL to 10 pg/ml and incubated at 37 °C for 24 hours. After 24 hours of incubation, the effect on reporter gene activity was determined by reading the OD at 655 nm using iMark™ Microplate Reader (BIO-RAD).
row,Compound,ability to activate mTLR7
1,"CCCCCCCCCCCCCCCC(=O)OCC(CSC[C@H](N)C(=O)N[C@@H](CCCCNC(=O)CNC(=O)c1ccc(Cn2c(O)nc3c(N)nc(NCCCC)nc32)cc1)C(=O)NCCCNCCCCNCCCN)OC(=O)CCCCCCCCCCCCCCC (stereo partly drawn) [CL475, (6R,9S)-6,23-diamino-9-(4-(2-(4-((6-amino-2-(butylamino)-8-hydroxy-9H-purin-9-yl)methyl)benzamido)acetamido)butyl)-7,10-dioxo-4-thia-8,11,15,20-tetraazatrico sane-1,2-diyl dipalmitate]",activate mTLR7
2,"CCCCCCCCCCCCCCCC(=O)OCC(CSC[C@H](N)C(=O)NCCCC[C@H](NC(=O)c1ccc(Cn2c(O)nc3c(N)nc(NCCCC)nc32)cc1)C(=O)NCCCNCCCCNCCCN)OC(=O)CCCCCCCCCCCCCCC (stereo partly drawn) [CL486, (6R,13S)-6,27-diamino-13-(4-((6-amino-2-(butylamino)-8-hydroxy-9H-purin-9-yl)methyl)benzamido)-7,14-dioxo-4-thia-8,15,19,24-tetraazaheptacosane-1,2-diyl dipalmitate]",activate mTLR7
3,"CCCCCCCCCCCCCCCC(=O)OCC(CSC[C@H](N)C(=O)NCCCC[C@H](NC(=O)CNC(=O)c1ccc(Cn2c(O)nc3c(N)nc(NCCCC)nc32)cc1)C(=O)NCCCNCCCCNCCCN)OC(=O)CCCCCCCCCCCCCCC (stereo partly drawn) [CL487, (6R,13S)-6,27-diamino-13-(2-(4-((6-amino-2-(butylamino)-8-hydroxy-9H-purin-9-yl)methyl)benzamido)acetamido)-7,14-dioxo-4-thia-8,15,19,24-tetraazaheptacosane-1,2-diyl dipalmitate]",activate mTLR7
4,"CCCCCCCCCCCCCCCC(=O)OCC(CSC[C@H](N)C(=O)N[C@@H](COC(=O)c1ccc(Cn2c(O)nc3c(N)nc(NCCCC)nc32)cc1)C(=O)NCCCNCCCCNCCCN)OC(=O)CCCCCCCCCCCCCCC (stereo partly drawn) [CL514, (6R,9S)-6,23-diamino-9-((4-((6-amino-2-(butylamino)-8-hydroxy-9H-purin-9-yl)methyl)benzoyloxy)methyl)-7,10-dioxo-4-thia-8,11,15,20-tetraazatricosane-1,2-diyl dipalmitate]",activate mTLR7
5,"CCCCCCCCCCCCCCCC(=O)OCC(CSC[C@H](N)C(=O)N[C@@H](CCC(=O)NCCCNCCCCNCCCN)C(=O)Nc1ccc(Cn2c(O)nc3c(N)nc(NCCCC)nc32)cc1)OC(=O)CCCCCCCCCCCCCCC (stereo partly drawn) [CL527, (6R,9S)-6,25-diamino-9-(4-((6-amino-2-(butylamino)-8-hydroxy-9H-purin-9-yl)methyl)phenylcarbamoyl)-7,12-dioxo-4-thia-8,13,17,22-tetraazapentacosane-1,2-diyl dipalmitate]",activate mTLR7
6,"CCCCCCCCCCCCCCCC(=O)OCC(CSC[C@H](N)C(=O)NCCCNCCCCNCCCNC(=O)CNC(=O)c1ccc(Cn2c(O)nc3c(N)nc(NCCCC)nc32)cc1)OC(=O)CCCCCCCCCCCCCCC (stereo partly drawn) [CL553, (20R)-20-amino-1-(4-((6-amino-2-(butylamino)-8-hydroxy-9H-purin-9-yl)methyl)phenyl)-1,4,19-trioxo-22-thia-2,5,9,14,18-pentaazapentacosane-24,25-diyl dipalmitate]",activate mTLR7
